The values that follow are results of earlier work, collected in US20250340636A1, “ANTIBODIES TARGETING L1CAM AND USES THEREOF” (MEMORIAL SLOAN-KETTERING CANCER CENTER, priority 2023, published 2025).

The conditions of this series: free drug, mice (Quintieri et al. 2005); cited from earlier work.

SMILES strings stand for the structures.

As to `COc1cccc2c1C(=O)c1c(O)c3c(c(O)c1C2=O)C[C@@](O)(C(=O)CO)C[C@@H]3O[C@H]1C[C@H]2[C@H](O[C@@H]3[C@@H](OC)OCCN32)[C@H](C)O1` [PNU-159682], the maximum tolerated dose was 0.015 mg/kg.
